Results: article PMC9083324, “Identifying Acute Cardiac Hazard in Early Drug Discovery Using a Calcium Transient High-Throughput Assay in Human-Induced Pluripotent Stem Cell-Derived Cardiomyocytes” (Frontiers in Physiology, 2022)
Each block holds one compound with its values, some of them ahead of it.

Legend:
[1] = tested on: hiPSC-CMs (iCell Cardiomyocytes^2); assay: Ca2+ transient assay (CTCM) with acute cardiac hazard scoring in hiPSC-CMs; details: for incidence of EADs / prolongation of CTD90: 3 nM
Procedure: Cells were pre-plated and seeded in fibronectin-coated 96-well plates at a density suited to form a monolayer and maintained in culture in a stage incubator (37°C, 5% CO2) according to the instructions of the cell provider. […] The beating monolayer was taken from frozen vials iCell Cardiomyocytes^2 (≈5 million cells/vial), which were plated onto three 96-well plates (≈50K/well).
Cells from these lot numbers were from the same donor (Apparently healthy normal, age <18) (according to FUJIFILM Cellular Dynamics).
On the day of the experiment, the culture medium in the 96-well plates containing the monolayers of hiPSC-CMs was replaced with Tyrode’s solution (Sigma, No. T2397) supplemented with 10 mM HEPES together with KCl to yield isokalemic (4.2 mM K^+) conditions.
The Ca^2+-sensitive fluorescence dye Cal-520™ AM (Cat. no.21131; AAT Bioquest) was used to capture the intracellular Ca^2+ transients in hiPSC-CMs. […] Briefly, Cal-520 was incubated for 70 min followed by a wash-out with supplemented Tyrode’s solution and a 30-min recovery before starting the experiments at 37°C. […] Compounds were added automatically using the Functional Drug Screen System (FDSS/µCell; Hamamatsu, Japan) head stage by adding 100 µl of the 2-fold concentrated compound solution to wells with hiPSC-CMs already containing a volume of 100 µl of the experimental solution, reaching the final intended test concentration in 0.1% DMSO.
The spontaneous beating activity of hiPSC-CMs was assessed through measurement of the Ca^2+ fluorescence signal integrated over the whole well. Ten minutes before starting the recordings, the experimental plates were put into the FDSS system for stabilization and a baseline recording was captured for 4 min followed by compound addition. The effect of the compounds was recorded around 30 min after compound addition. The Ca^2+ transient signals were sampled every 16 ms (frame rate of 62.5 Hz) in hiPSC-CMs maintained at 37°C during the acquisition time. […] In addition, beat rate (BR = peak count/min) and amplitude (amp = difference between max. and min of every beat) were measured, and incidence of cellular arrhythmias, e.g., EAD-like activity (considered a surrogate of TdP), cessation of beating (∼ stop beating), and below beating below quantification level (caused by low amplitude of the Ca^2+ transient or by ectopic beat: BBQL) were also recorded (Figures 1B,C).
For all individual experiments, delta percent (Δ%) at 30 min with respect to the baseline value was calculated [e.g., ∆% for CTD90 = (CTD90 30 min-CTD90 0 min)/CTD90 0 min) × 100].
TIs indicate an interval where, with a certain confidence level (1- α = 0.95), a specified proportion (p = 0.90) of a sampled population falls. […] These ΔΔ% net effects were the values obtained after normalization for baseline (Δ% vs. baseline) per well and the aggregated compound-treated wells are vehicle corrected by subtraction with the aggregated Δ% of the corresponding DMSO wells from the same plate [e.g., ΔΔ% = median Δ% drug - median Δ% DMSO]. The categorization was made first for each concentration and then aggregated per compound and test site. […] Similarly, a compound was categorized as decreased if it was in a category “decreased” in at least one of the four concentrations.
The cut-off values are net changes (ΔΔ% changes vs. baseline and vehicle), which are based on the statistical tolerance intervals (TIs) (Δ% changes vs. baseline). TIs indicate an interval where, with a certain confidence level, a specified proportion of a sampled population falls.

IKs = tested on: IKs; parameters: method as in Liu et al., 2010; details: ref Liu et al., 2010; cited from earlier work
IKr = tested on: IKr; parameters: method as in Liu et al., 2010; details: ref Liu et al., 2010; cited from earlier work
[2] = tested on: hiPSC-CMs (iCell Cardiomyocytes); assay: Ca2+ transient assay (CTCM), lot-to-lot comparison in iCell Cardiomyocytes (non-square cells, Lot 103674); type: cell-based, human
Procedure: To investigate lot-to-lot variability in hiPSC-CMs, we tested 19 drugs with known clinical cardiac risk in other lots of iCell Cardiomyocytes^2. Fifty-five reference drugs were tested in iCell Cardiomyocytes^2 -Lot12012, 18 reference drugs were tested in iCell Cardiomyocytes^2 (Lot105091), and 18 reference drugs were tested in iCell Cardiomyocytes (Lot103674) (nonsquare cells).

[3] = updated scoring: 10 points for decrease in beat rate by ≥ −30%
[4] = 3 nM (2-fold fCmax), n = 131 studies
[5] = similar among the iCell Cardiomyocytes^2 and iCell Cardiomyocytes lots
[6] = over the tested concentrations (Figure 3)

hazard score [1, 3]: low
Structure (SMILES): COc1cc2c(cc1OC)CC(=O)N(CCCN(C)C[C@H]1Cc3cc(OC)c(OC)cc31)CC2 [Ivabradine]

Structure (SMILES): O=C(c1ccc(OCCN2CCCCC2)cc1)c1c(-c2ccc(O)cc2)sc2cc(O)ccc12 [Raloxifene]
hazard score ([1]; at >2000 folds of fCmax): red | hazard score ([1]; at ∼700–800 folds fCmax): green | IC50 (IKs): 4800 nM | IC50 (IKr): 1100 nM

share of studies identified as high (red color) hazard score [1, 4]: 21% | share of studies identified as very high (black color) hazard score [1, 4]: 71% | share of studies identified as yellow hazard score [1, 4]: 8%
Structure (SMILES): CN(CCOc1ccc(NS(C)(=O)=O)cc1)CCc1ccc(NS(C)(=O)=O)cc1 [Dofetilide]
incidence of EADs ([1]; first iCell Cardiomyocytes^2 lot (12,012)): 63% | prolongation of CTD90 ([1]; lot 10,591 (n = 28)): 330% | prolongation of CTD90 ([1]; lot 12,012 (n = 144)): 305% | incidence of EADs ([1]; second iCell Cardiomyocytes^2 lot): 71% | incidence of EADs ([2]; 3 nM, iCell Cardiomyocytes): 65% | prolongation of CTD90 ([2]; 3 nM, lot105091 as printed (n = 20)): 234%

Structure (SMILES): [Ba+2].[Cl-].[Cl-] [BaCl2]
effect on hiPSC-CMs (detection in the assay) ([1]; concentration not given): no effect

Structure (SMILES): CC(C)NCC(O)c1ccc(NS(C)(=O)=O)cc1 (stereo not drawn) [Sotalol]
EAD incidence compared to the two lots of iCell-Cardiomyocytes^2 (3 and 10 µM) ([2]; iCell Cardiomyocytes, 10 µM): much higher

hazard score [1, 5]: no hazard
Structure (SMILES): CC(C)(C)c1ccc(C(=O)CCCN2CCC(OC(c3ccccc3)c3ccccc3)CC2)cc1 [Ebastine]

hazard score [1, 5]: no hazard
Structure (SMILES): CC(C)NCC(O)COc1ccc(CC(N)=O)cc1 (stereo not drawn) [Atenolol]

hazard score [1, 6]: Green
Structure (SMILES): CCC1(c2ccccc2)C(=O)NCNC1=O [Primidone]

share of studies identified within the low and high hazard zones ([1]; 300 nM (15-fold fCmax), n = 124 studies): 95%
Structure (SMILES): COCCOC(=O)C1=C(C)NC(C)=C(C(=O)OC(C)C)C1c1cccc([N+](=O)[O-])c1 (stereo not drawn) [Nimodipine]

hazard score [1, 3]: low
Structure (SMILES): Nc1ncnc2c1ncn2[C@@H]1O[C@H](CO)[C@@H](O)[C@H]1O [adenosine]

effect on hiPSC-CMs (detection in the assay) ([1]; concentration not given): not detected
Structure (SMILES): CC(C)(Oc1ccc(Cl)cc1)C(=O)NC1C2CC3CC1CC(NS(C)(=O)=O)(C3)C2 (stereo not drawn) [JNJ-303]

Structure (SMILES): Cc1cc2c(s1)Nc1ccccc1N=C2N1CCN(C)CC1 [Olanzapine]
hazard score ([1]; highest tested concentration 100 nM (around fCmax)): not found to be with any hazard level

hazard score [1, 3]: low
Structure (SMILES): C[N+](C)(C)CCOC(N)=O [carbachol]

hazard score ([1]; 1 µM (16-fold the fCmax), numerous studies): no hazard
Structure (SMILES): O=C(O)COCCN1CCN(C(c2ccccc2)c2ccc(Cl)cc2)CC1 (stereo not drawn) [Cetirizine]

hazard score [1, 5]: no hazard
Structure (SMILES): C[C@H](CS)C(=O)N1CCC[C@H]1C(=O)O [Captopril]

cessation of beating ([1]; concentration not given): caused cessation of beating | effect on CTD90 ([1]; concentration not given): slightly shortened
Structure (SMILES): CC(C)(C)c1ccc(C(O)CCCN2CCC(C(O)(c3ccccc3)c3ccccc3)CC2)cc1 (stereo not drawn) [terfenadine]

effect on CTD90 ([1]; concentration not given): shortened
Structure (SMILES): O=C(Nc1ccc(Oc2ccccc2)cc1)c1cccc([N+](=O)[O-])c1 [ICA-105574]

Structure (SMILES): CC(C)NCC(O)c1ccc(O)c(O)c1 (stereo not drawn) [Isoproterenol]
share of studies identified within the low and high hazard zones ([1]; 100 nM (63-fold fCmax), n = 143 studies): 92%

hazard score [1, 6]: Green
Structure (SMILES): O=C1NC(=O)C(c2ccccc2)(c2ccccc2)N1 [Phenytoin]

cessation of beating ([1]; 100 µM = 67x fCmax): some cessation of beating | hazard score ([1]; 100 µM = 67x fCmax): Red
Structure (SMILES): Cc1cccc(C)c1OCC(C)N (stereo not drawn) [Mexiletine]
